According to US11306056B2 (Cardioxyl Pharmaceuticals, Inc., priority 2006, dated 2022):
Where two headings read alike, the source gives them in different places.

Assays:
[1] = Decomposition kinetics (HNO release) monitored by UV-Vis spectroscopy; format: physicochemical; settings: for half-life: pH 7.4, decomposition half-life, pH 7.4, 37° C., compounds 5, 7-10 not first-order, approximate half-lives; for kO2/kAr: ratio of oxygen-dependent to argon decomposition rate, 0.1 M PBS pH 7.4, 37° C.
Method: The decomposition rates of the compounds may be determined by UV-Vis spectroscopy.
The decomposition of compounds 1-4 and 6 from Example 1 was monitored by UV-Vis spectroscopy in 0.1 M PBS buffer at pH 7.4 and 37° C. The spectral behavior was isosbestic and the time course fit well to a single exponential. […] Decomposition kinetics for compounds 5, 7-10 of Example 1 are not first-order and thus only approximate half-lives are reported. Compounds with more than one number in a single column in the table below indicates the results of two experiments for the same compound.

[2] = system: rat renal tissue; settings: rat kidney, given during ischemia and 5 minutes before reperfusion; cited from earlier work
[3] = system: ischemia/reperfusion injury; settings: pre-ischemic administration; cited from earlier work
[4] = system: myocardial ischemia/reperfusion injury; settings: anesthetized rabbits, given during ischemia and 5 minutes prior to reperfusion; cited from earlier work
[5] = aerated 0.1 M PBS buffer, aerated 0.1 M PBS buffer, read-out: t1/2 (air)
[6] = argon-saturated 0.1 M PBS buffer, argon-saturated 0.1 M PBS buffer, read-out: t1/2 (Ar)

Row | half-life [1, 5] | half-life [1, 6] | kO2/kAr [1] | melting point | Structure (SMILES) | neutrophil infiltration into renal tissue [2] | effect on ischemia/reperfusion injury [3] | effect on myocardial ischemia/reperfusion injury [4]
1 | 0.68 min | 1.05 min | 0.55 | 156 to 159 °C (dec.) | O=S(=O)(NO)c1ccccc1Br [Compound 3, 2-Bromo-N-hydroxybenzenesulfonamide] | – | – | –
2 | 7 min | 33 min | – | 117 to 121 °C (dec.) | O=S(=O)(NO)c1ccc(C(F)(F)F)cc1 [Compound 8, 4-(Trifluoromethyl)-N-hydroxybenzenesulfonamide] | – | – | –
3 | 2.67 min | 17.5 min | 5.82 | 127 to 129 °C | O=S(=O)(NO)c1ccccc1F [Compound 1, 2-Fluoro-N-hydroxybenzenesulfonamide] | – | – | –
4 | 1.75 min | 3.61 min | 1.06 | 152 to 155 °C (dec.) | O=S(=O)(NO)c1ccccc1Cl [Compound 2, 2-Chloro-N-hydroxybenzenesulfonamide] | – | – | –
5 | – | – | 2.52 | – | O=S(=O)(NO)c1cc(Cl)sc1Cl [Compound 6, 2,5-Dichlorothiophene-3-sulfohydroxamic acid] | – | – | –

Second part, the compound before the results:

Row | Structure (SMILES) | half-life [1, 5] | half-life [1, 6] | kO2/kAr [1] | melting point | neutrophil infiltration into renal tissue [2] | effect on ischemia/reperfusion injury [3] | effect on myocardial ischemia/reperfusion injury [4]
6 | O=[N+]([O-])c1ccc(S(=O)(=O)NO)cc1 [Compound 10, 4-Nitro-N-hydroxybenzenesulfonamide] | 3.3 min | – | – | – | – | – | –
7 | N#Cc1ccc(S(=O)(=O)NO)cc1 [Compound 9, 4-Cyano-N-hydroxybenzenesulfonamide] | 4 min | 17.8 min | – | 151 to 155 °C (dec.) | – | – | –
8 | [Na+].[Na+].[O-][N+]([O-])=NO [AS, sodium dioxotrinitrate] | – | – | – | – | contributed to neutrophil infiltration into the tissue | prevent or reduce ischemia/reperfusion injury | increased myocardial ischemia/reperfusion injury
9 | CC(C)N[N+]([O-])=N[O-].[Na+] [isopropylamine/NO] | – | – | – | – | – | prevent or reduce ischemia/reperfusion injury | –
10 | O=S(=O)(NO)c1ccccc1C(F)(F)F [Compound 4, 2-(Trifluoromethyl)-N-hydroxybenzenesulfonamide] | 0.55 min | 0.96 min | 0.75 | 124 to 127 °C (dec.) | – | – | –
11 | O=S(=O)(NO)c1ccc(F)cc1 [Compound 7, 4-Fluoro-N-hydroxybenzenesulfonamide] | 10 min | 72.1 min | – | – | – | – | –
